Measurements published in ChEMBL document CHEMBL1201862, “PubChem BioAssay data set” (2004).
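Compound exposure: 48 hours, 5 concentrations, 96-well plates. Abbreviation: GI50, concentration required for 50% inhibition of growth.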 Activity calls are given as the source filed them. Rule as the data show it: active = GI50 up to about 1.1 µM and inactive = higher.

Key:
Assay in all cases: growth of human tumour cells (NCI), 48 h
CAKI-1 = tested on: CAKI-1
CCRF-CEM = tested on: CCRF-CEM
DU-145 = tested on: DU-145
EKVX = tested on: EKVX
HCT-116 = tested on: HCT-116
HOP-92 = tested on: HOP-92
KM12 = tested on: KM12
MDA-MB-231 = tested on: MDA-MB-231
MDA-MB-435 = tested on: MDA-MB-435
MDA-N = tested on: MDA-N
Malme-3M = tested on: Malme-3M
NCI/ADR-RES = tested on: NCI/ADR-RES
OVCAR-5 = tested on: OVCAR-5
RXF 393 = tested on: RXF 393
SK-MEL-2 = tested on: SK-MEL-2
SNB-19 = tested on: SNB-19
SR = tested on: SR
T47D = tested on: T47D
U-251 = tested on: U-251
UO-31 = tested on: UO-31

Structure (SMILES)	GI50 (CAKI-1)	GI50 (CCRF-CEM)	GI50 (DU-145)	GI50 (EKVX)	GI50 (HCT-116)	GI50 (HOP-92)	GI50 (KM12)	GI50 (MDA-MB-231)	GI50 (MDA-MB-435)	GI50 (MDA-N)	GI50 (Malme-3M)	GI50 (NCI/ADR-RES)	GI50 (OVCAR-5)	GI50 (RXF 393)	GI50 (SK-MEL-2)	GI50 (SNB-19)	GI50 (SR)	GI50 (T47D)	GI50 (U-251)	GI50 (UO-31)
CO[C@@]12[C@H](COC(N)=O)C3=C(C(=O)C(C)=C(N)C3=O)N1C[C@H]1[C@@H]2N1C (stereo partly specified) [PORFIROMYCIN]	0.948 µM (active)	0.993 µM (active)	0.282 µM (active)	12.3 µM (inactive)	2.22 µM (inactive)	5.43 µM (inactive)	6.97 µM (inactive)	9.73 µM (inactive)	12.3 µM (inactive)	12.5 µM (inactive)	4.1 µM (inactive)	29.4 µM (inactive)	10.2 µM (inactive)	6.31 µM (inactive)	13.5 µM (inactive)	2.35 µM (inactive)	0.409 µM (active)	9.2 µM (inactive)	1.19 µM (inactive)	13.9 µM (inactive)
CCCCc1ccc(Nc2nc(Cl)c3ccn(C4CC(Oc5ccc(C)cc5)C(COc5ccc(C)cc5)O4)c3n2)cc1 (stereo unspecified)	> 46.5 µM (inactive)	> 46.5 µM (inactive)	> 46.5 µM (inactive)	28.6 µM (inactive)	> 46.5 µM (inactive)	> 46.5 µM (inactive)	> 46.5 µM (inactive)	> 46.5 µM (inactive)	> 46.5 µM (inactive)	> 46.5 µM (inactive)	26.7 µM (inactive)	> 46.5 µM (inactive)	> 31.6 µM (inactive)	> 46.5 µM (inactive)	> 46.5 µM (inactive)	25.9 µM (inactive)	> 10 µM (inactive)	> 46.5 µM (inactive)	> 46.5 µM (inactive)	25.6 µM (inactive)
CCOC(=O)c1c(-c2ccc(OC)cc2)c(C#N)c(=S)n(C2OC(CO)C(O)C(O)C2O)c1C (stereo unspecified)	87.7 µM (inactive)	> 100 µM (inactive)	> 100 µM (inactive)	> 100 µM (inactive)	> 100 µM (inactive)	> 100 µM (inactive)	> 100 µM (inactive)	> 100 µM (inactive)	> 100 µM (inactive)	> 100 µM (inactive)	> 100 µM (inactive)	> 100 µM (inactive)	> 100 µM (inactive)	> 100 µM (inactive)	> 100 µM (inactive)	> 100 µM (inactive)	> 100 µM (inactive)	> 100 µM (inactive)	> 100 µM (inactive)	> 100 µM (inactive)
c1ccc2sc(C3(N4CCCCC4)CCCCCC3)cc2c1	26.7 µM (inactive)	13.2 µM (inactive)	31.1 µM (inactive)	22.9 µM (inactive)	15.5 µM (inactive)	22.1 µM (inactive)	17.1 µM (inactive)	23 µM (inactive)	22.3 µM (inactive)	34.9 µM (inactive)	24 µM (inactive)	20.5 µM (inactive)	18.8 µM (inactive)	14.5 µM (inactive)	25.9 µM (inactive)	20.8 µM (inactive)	19.1 µM (inactive)	14.5 µM (inactive)	17.3 µM (inactive)	25.1 µM (inactive)
Cc1cc(Cc2cc(Cc3cc(C)cc(C(C)(C)C)c3O)c(C)cc2C)c(O)c(C(C)(C)C)c1	19.9 µM (inactive)	16 µM (inactive)	14.5 µM (inactive)	16.6 µM (inactive)	16.4 µM (inactive)	13.2 µM (inactive)	16.6 µM (inactive)	> 100 µM (inactive)	13 µM (inactive)	18.6 µM (inactive)	12.5 µM (inactive)	17.9 µM (inactive)	19.6 µM (inactive)	12 µM (inactive)	> 100 µM (inactive)	17.2 µM (inactive)	29.2 µM (inactive)	14 µM (inactive)	> 100 µM (inactive)	18.1 µM (inactive)
c1cc2nnc1SCCCSc1ccc(nn1)SCCCS2	> 45.4 µM (inactive)	> 21.2 µM (inactive)	> 48 µM (inactive)	> 100 µM (inactive)	17.6 µM (inactive)	38.4 µM (inactive)	> 35.6 µM (inactive)	30 µM (inactive)	> 40.6 µM (inactive)	> 29.9 µM (inactive)	> 48.8 µM (inactive)	> 20.5 µM (inactive)	31.3 µM (inactive)	12.9 µM (inactive)	24.7 µM (inactive)	33.1 µM (inactive)	> 26 µM (inactive)	31.3 µM (inactive)	17.3 µM (inactive)	> 100 µM (inactive)
Cc1cc(SCC(=O)c2ccc(Br)cc2)cc(C)[o+]1	35.9 µM (inactive)	16 µM (inactive)	29.5 µM (inactive)	12.4 µM (inactive)	23.8 µM (inactive)	22.7 µM (inactive)	24.4 µM (inactive)	36.6 µM (inactive)	21.3 µM (inactive)	30.6 µM (inactive)	30.9 µM (inactive)	29.8 µM (inactive)	20.6 µM (inactive)	28.6 µM (inactive)	30.8 µM (inactive)	36.7 µM (inactive)	22.8 µM (inactive)	19.8 µM (inactive)	30.1 µM (inactive)	26.6 µM (inactive)
COc1ccc(N2C(=O)C3c4[nH]c5ccccc5c4C4c5ccccc5CC4C3C2=O)cc1 (stereo unspecified)	> 100 µM (inactive)	> 100 µM (inactive)	> 100 µM (inactive)	> 100 µM (inactive)	> 100 µM (inactive)	> 100 µM (inactive)	> 100 µM (inactive)	> 100 µM (inactive)	> 100 µM (inactive)	> 100 µM (inactive)	> 100 µM (inactive)	> 100 µM (inactive)	> 100 µM (inactive)	> 100 µM (inactive)	> 100 µM (inactive)	> 100 µM (inactive)	> 100 µM (inactive)	> 100 µM (inactive)	> 100 µM (inactive)	> 100 µM (inactive)
Cn1c(=O)c2nc(CCNC(=O)c3ccccc3)[nH]c2n(C)c1=O	> 100 µM (inactive)	> 100 µM (inactive)	> 100 µM (inactive)	> 100 µM (inactive)	> 100 µM (inactive)	> 100 µM (inactive)	> 100 µM (inactive)	> 100 µM (inactive)	> 100 µM (inactive)	> 100 µM (inactive)	> 100 µM (inactive)	> 100 µM (inactive)	> 100 µM (inactive)	> 100 µM (inactive)	> 100 µM (inactive)	> 100 µM (inactive)	> 100 µM (inactive)	> 100 µM (inactive)	> 100 µM (inactive)	> 100 µM (inactive)
O=C(c1cccc(F)c1F)N1CCc2c([nH]c3ccccc23)C1c1ccc2c(c1)OCO2 (stereo unspecified)	15.5 µM (inactive)	5.83 µM (inactive)	18.2 µM (inactive)	8.32 µM (inactive)	8 µM (inactive)	26.5 µM (inactive)	4.92 µM (inactive)	7.87 µM (inactive)	2.23 µM (inactive)	2.42 µM (inactive)	28.4 µM (inactive)	5.56 µM (inactive)	30.1 µM (inactive)	4.99 µM (inactive)	4.2 µM (inactive)	7.76 µM (inactive)	3.61 µM (inactive)	10.6 µM (inactive)	11.1 µM (inactive)	10.9 µM (inactive)
Cc1cccc(Nc2nn3c(=O)c4c5c(sc4nc3s2)CCCC5)c1	9.93 µM (inactive)	56.5 µM (inactive)	> 100 µM (inactive)	–	22.9 µM (inactive)	26.4 µM (inactive)	16.1 µM (inactive)	8.09 µM (inactive)	7.41 µM (inactive)	15 µM (inactive)	3.15 µM (inactive)	11.1 µM (inactive)	87.7 µM (inactive)	20.4 µM (inactive)	> 100 µM (inactive)	> 100 µM (inactive)	25.4 µM (inactive)	9.82 µM (inactive)	46.2 µM (inactive)	> 100 µM (inactive)
CCCCc1ccc(Nc2nc(Cl)c3ncn(C4CC(Oc5ccc(C)cc5)C(COc5ccc(C)cc5)O4)c3n2)cc1 (stereo unspecified)	6.52 µM (inactive)	> 100 µM (inactive)	> 100 µM (inactive)	> 100 µM (inactive)	> 100 µM (inactive)	17.2 µM (inactive)	> 100 µM (inactive)	> 100 µM (inactive)	> 100 µM (inactive)	> 100 µM (inactive)	> 100 µM (inactive)	> 100 µM (inactive)	> 100 µM (inactive)	> 100 µM (inactive)	> 100 µM (inactive)	> 100 µM (inactive)	> 100 µM (inactive)	> 100 µM (inactive)	–	> 100 µM (inactive)
CN(C)c1n/c(=N/Cc2cccs2)ss1	> 10 µM (inactive)	0.173 µM (active)	> 10 µM (inactive)	> 10 µM (inactive)	> 10 µM (inactive)	> 10 µM (inactive)	> 10 µM (inactive)	> 10 µM (inactive)	> 10 µM (inactive)	> 10 µM (inactive)	> 10 µM (inactive)	> 10 µM (inactive)	> 10 µM (inactive)	> 10 µM (inactive)	–	> 10 µM (inactive)	0.573 µM (active)	> 10 µM (inactive)	> 10 µM (inactive)	> 10 µM (inactive)
N/C(CSCCSC/C(N)=N/O)=N\O	> 100 µM (inactive)	> 100 µM (inactive)	> 100 µM (inactive)	> 100 µM (inactive)	> 100 µM (inactive)	> 100 µM (inactive)	> 100 µM (inactive)	> 100 µM (inactive)	> 100 µM (inactive)	> 100 µM (inactive)	> 100 µM (inactive)	> 100 µM (inactive)	> 100 µM (inactive)	> 100 µM (inactive)	–	> 100 µM (inactive)	> 100 µM (inactive)	> 100 µM (inactive)	> 100 µM (inactive)	> 100 µM (inactive)
